According to US20240130988A1, “Use of stilbene compounds in the preparation of anti-tumor drugs” (Guangzhou AnHao Pharmaceutical Technology CO., LTD., priority 2022, published 2024):
Like-named read-outs stand apart in the source and are kept apart here.

How the values were obtained:
[1] = tested on: human liver cancer QGY7703; experiment: Human liver cancer QGY7703 transplanted tumor in nude mice; assay type: in vivo, BALB/C nude mice; design: key to RTV (d 18): RTV = Vt/Vo, tumor volume relative to volume at grouping (d1); details: for inhibition in vivo at 100 mg/kg: Mus musculus, read-out: Tumor inhibitory rate %
Procedure: A human liver cancer QGY7703 model transplanted into nude mice was used in the experiment to investigate the anti-tumor effect of test compounds. The mice were intravenously injected at a dosage of 100 mg/kg for 14 days, and the tumor inhibition rate against human liver cancer QGY7703 was measured.
Preparation: The compound was prepared as the injection at the desired concentration with sterile normal saline, prior to administration.
Animal strain: BALB/C nude mice (SPF grade), weight: 19-21 g, gender: male. Number of animals in each treatment group: 8; number of animals in the control group: >12.
The tumor blocks of human liver cancer QGY7703 with good growth were cut into uniform small pieces of 3 mm under sterile conditions, and then subcutaneously inoculated into the right armpit of each mouse with a cannula. These mice were divided into 9 groups, 8 mice for each treatment group, while more than 12 mice were included in the control group.
14 days after inoculation, the average volume of the tumor block was about 100 mm^3. The animals were regrouped based on the size of the tumor, and the animals with tumors that were too large and too small were sifted out. For each group, the average volume of tumors was basically the same, and then the mice were initially treated with test compounds. The mice in the treatment groups were intravenously injected once a day for 14 days, at a dosage of 0.1 mL/20 g body weight; the mice in the control group were given the same volume of sterile normal saline. From the 14th day of inoculation, the long diameter a (mm) of the tumor, together with the perpendicular short diameter b (mm), was measured using a digital electronic caliper, twice a week. The calculation formula of tumor volume is: TV=ab^2/2, and the formula for calculating the relative tumor volume is RTV=Vt/Vo, wherein Vo denotes the tumor volume measured when the mice were divided into groups (i.e. d1), and Vt is the tumor volume from each measurement.
The result determination is based on the following formula: […]

[2] = tested on: human liver cancer Bel7404; experiment: Compound 3 combined with lenvatinib, human liver cancer Bel7404 xenograft in nude mice; assay type: in vivo; details: po: lenvatinib 10 mg/kg, compound 3 400 mg/kg, combination 10 + 400
From the text: Experimental method: The model of human liver cancer Bel7404 transplant tumor in nude mice was established by subcutaneously inoculating human liver cancer Bel7404 cell lines into the armpits of nude mice. Cells were inoculated in an amount of 1×10^6, and after formation of the transplanted tumors by inoculation, the cells were passed 3 generations in nude mice before use. The vigorous growth of tumor tissue was cut into approximate 1.5 mm^3, and homogenized under sterile conditions, to prepare 1×10^7/mL of cell suspension. 0.1 mL of cell suspension was subcutaneously inoculated into the right armpit of nude mice. For transplanted tumors in nude mice, the diameter of the transplanted tumor was measured with vernier caliper. After the tumor grew to 100 mm^3, the animals were randomly divided into groups, with 6 animals in each group. Using the method of measuring tumor diameter, the anti-tumor effect of test compound was dynamically observed. Compound 3 was orally administered at 400 mg/kg, once a day, for three weeks; lenvartinib was also orally administered at 10 mg/kg, once a day, for two weeks. The measurement frequency of tumor diameter was once every three days. The animals in the negative control group were orally given an equal amount of physiological saline. The effect of combined medicaments was evaluated based on the Q value calculated by the Jin's formula: […]
Ea+b represents the tumor inhibitory rate of the combined medicaments, while Ea and Eb represent the tumor inhibitory rates of medicament A and medicament B, respectively. For example, the Q value of 0.85-1.15 means additive action (+), and the Q value of >1.15 means synergistic action (++).

[3] = tested on: human lung cancer 95D and human liver cancer Bel7404; experiment: Tumor necrosis in vivo, HE staining; design: species or system nude mice; details: 400 mg/kg
Procedure: Well growing solid tumors (human lung cancer […]) and human liver cancer Bel7404) were cut into uniform small pieces of approximate 2-3 mm under sterile conditions, and subcutaneously inoculated into the right armpit of each nude mouse using a cannula. 14 days after inoculation, each mouse was treated with compound 6 by oral administration at a dosage of 400 mg/kg (in a dosage by volume of 0.5 mL/20 g body weight), and compound 6 was prepared as a suitable solution with sterile normal saline. At different time points (4 h, 24 h) after administration, the nude mice were killed, and the tumor tissue was dissected and fixed with 10% formalin. The pathological sections were made, followed by HE staining and taking photos, to observe the internal necrosis and cell proliferation within the tumors.

[4] = tested on: human liver cancer QGY7703; experiment: Compound 6 combined with T cells, human liver cancer QGY7703 model in NOG mice; assay type: in vivo; details: 8 × 10^6 T cells sc, compound 6 200 mg/kg ip, or both
Procedure: Experimental method: QGY7703 tumor cells were washed twice with PBS, and then resuspended with PBS:Matrix (1:1 mixture by volume). The cell concentration was adjusted to 2.5×10^6/mL, and subcutaneously inoculated to the right armpit of experimental animals at 200 μL/mouse, i.e. 5×10^5 cells/mouse. When the tumor grew to about 50 mm^3, the mice were divided into groups for administration.
T cell culture and harvest: PBMCs of donors were activated and expanded in vitro according to the standard operating procedures for T cell culture. The cells in logarithmic growth phase were harvested and suspended in the medium at a moderate dose (2×10^7/mL) for future use.
T cells were administrated by subcutaneous injection, and the injection site was the same as the inoculation site of tumor cells.
The general conditions, body weight, tumor volume, and tumor weight of mice were recorded every 3 days. Based on the status of the tumor, whether EAL was further injected was decided.
The effect of combined medicaments was evaluated based on the Q value calculated by Jin's formula: […]
Ea+b represents the tumor inhibitory rate of the combined medicaments, while Ea and Eb represent the tumor inhibitory rates of medicament A and medicament B, respectively.

[5] = QGY-7703, QGY7703, 100 mg/kg iv × 14

Compound	inhibition in vivo at 100 mg/kg ([1]; QGY-7703, iv) [%]	RTV (d 18) ([1]; QGY7703, 100 mg/kg iv × 14)	inhibition in vivo at 100 mg/kg [1, 5] [%]	further results
COc1cc(/C=C(/C(=O)O)c2cc(OC)c(OC)c(OC)c2)cc(OC)c1 [Compound 3, (E)-3-(3,5-dimethoxyphenyl)-2-(3,4,5-trimethoxyphenyl)acrylic acid]	63.7	4.67 ± 0.63		RTV (d 21) [2]: 3.54 ± 1.87; Terminal weight [2]: 22.4 ± 0.6 g; Tumor inhibitory rate % [2]: 68.47%
COc1ccc(/C=C(/C(=O)O)c2cc(OC)c(OC)c(OC)c2)c(F)c1O [Compound 9, (E)-3-(2-fluoro-3-hydroxy-4-methoxyphenyl)-2-(3,4,5-trimethoxyphenyl)acrylic acid]		4.67 ± 0.58	63.7	
COc1ccc(/C=C(/C(=O)O)c2cc(OC)c(OC)c(OC)c2)cc1F [Compound 4, (E)-3-(3-fluoro-4-methoxyphenyl)-2-(3,4,5-trimethoxyphenyl)acrylic acid]	60.3	5.11 ± 0.76		
COc1ccc(/C=C(/C(=O)O)c2cc(OC)c(OC)c(OC)c2)cc1O [Compound 6, (E)-3-(3-hydroxy-4-methoxyphenyl)-2-(3,4,5-trimethoxyphenyl)acrylic acid]		3.65 ± 0.47	71.6	Tumor inhibitory rate % ([1]; QGY7703, 100 mg/kg iv × 14): best inhibitory effect on liver cancer; Internal necrosis within the tumors (HE staining) ([3]; 4 h after oral administration): necrosis began to appear within the tumor tissues; Internal necrosis within the tumors (HE staining) ([3]; 24 h after oral administration): massive necrosis; RTV(d 32) [4]: 19.62 ± 3.17; Terminal weight [4]: 24.5 ± 0.9 g; Tumor inhibitory rate % [4]: 39.61%
COc1cc(/C=C(/C(=O)[O-])c2cc(OC)c(OC)c(OC)c2)cc(OC)c1F.[K+] [Compound 10]	61.3	4.98 ± 0.72		
